In patent US12691068B2, “Modular lipid compounds and two- to three-component lipid nanoparticle compositions” (SunVax mRNA Therapeutics Inc., priority 2022, dated 2026):

System: HEK293T cells
Experiment: In vitro transfection efficiency of LNPs encapsulating SamRNA-GFP in HEK293T cells (flow cytometry)
Assay type: cell-based
Conditions: modular lipid/DOPE/DMG-PEG2000 40/10/2 mole ratio, 100 ng RNA, 24 hours
Description: The modular lipids of the disclosure were mixed with at least one of ionizable lipid, DOPE, cholesterol (Chol), and/or DMG-PEG2000 in ethanol at a predetermined molar ratio. Ionizable lipid: SamRNA molar ratio of 6:1 was used to prepare an organic phase. SamRNA-LUC or SamRNA-GFP was diluted in 50 mM citrate buffer (pH 4.5, Fisher) or PBS (pH 7.4, Fisher) to prepare an aqueous phase. The SamRNA was stored at −80° C. and was thawed on ice prior to use. The ethanol and aqueous phases were mixed at a 1:3 ratio by pipette. The resultant LNPs were purified by ultrafiltration (100,000 cut-off, MilliporeSigma™ Amicon™ Ultra-15 Centrifugal Filter Units) at 4° C. prior to injection.
LNPs containing SamRNA-GFP or SamRNA-LUC were added into 96-well plate at 100 ng/well pre-seeded with HEK293, C2C12 or MC38 cells. After a 24 hour incubation at 37° C. and 5% CO2, the SamRNA-LUC transfection efficiency was measured by plate reader (Perkin Elmer Envision 2104) and GFP SamRNA transfection efficiency was measured by flow cytometry (BD FACSymphony™ A5 SE Cell Analyzer).
The transfection efficacy of LNPs formulated using modular lipids P161F5, P161F6 or P161F10; DOPE and DMG-PEG2000 (modular lipid/DOPE/DMG-PEG2000, 40/10/2 mole ratio) encapsulating LNP-SamRNA-GFP were studied using HEK293T cells in 96-well plates. […]

Structure (SMILES)	transfection efficiencies compared with four-component LNPs containing MC3 and SM102
CCCCCCCCCCCCC(CCCCCCCCCC)CN(C(=O)CCC(C)C1CCC2C3CC(O)C4CC(O)CCC4(C)C3CCC12C)C(C(=O)NC12CC3CC(CC(C3)C1)C2)C1CCN(CC)CC1 (centres unmarked) [P161F6, N-(2-(((1s,3s)-adamantan-1-yl)amino)-1-(1-ethylpiperidin-4-yl)-2-oxoethyl)-N-(2-decyltetradecyl)-4-(3,6-dihydroxy-10,13-dimethylhexadecahydro-1H-cyclopenta[a]phenanthren-17-yl) pentanamide]	comparable or higher
CCCCCCCCCCC(CCCCCCCC)CN(C(=O)CCC(C)C1CCC2C3CC(O)C4CC(O)CCC4(C)C3CCC12C)C(CC1CCN(C)CC1)C(=O)NC12CC3CC(CC(C3)C1)C2 (centres unmarked) [P161F10, N-(1-(((1s,3s)-adamantan-1-yl)amino)-3-(1-methylpiperidin-4-yl)-1-oxopropan-2-yl)-4-(3,6-dihydroxy-10,13-dimethylhexadecahydro-1H-cyclopenta[a]phenanthren-17-yl)-N-(2-octyldodecyl)pentanamide]	comparable or higher
